Experimental data as given in US20050171203A1, “Pregabalin composition” (Pfizer Inc., priority 2003, published 2005).

Experiments:
[1] = observations on preserved pregabalin compositions (Remarks of Table 1: pH, particles, color, mold); type: physicochemical; settings: sorbic acid used with pregabalin
From the text: Other common preservatives, such as ethanol, are unsuitable for use in pediatric formulations.
In TABLE 1, the annotations “Meets Ph. Eur.” and “Fails Ph. Eur.” refer to whether the test results meet or fail the microbial limit test as defined in the current edition of European Pharmacopoeia (5th ed., 2004): 1000 bacteria per g (max); 100 yeasts and molds per g (max); and free of E. coli.

[2] = storage at 5° C.
[3] = test system: bacteria; yeasts and molds; E. coli; assay: antimicrobial efficacy testing (microbial limit test, European Pharmacopoeia 5th ed.); settings: glycerol as preservative

Row | SMILES | appearance of the solution [1] | shift in pH [1] | behaviour in solution under storage [2] | compliance with requirements of European Pharmacopoeia (5th ed., 2004) [3]
1 | C/C=C/C=C/C(=O)O [sorbic acid] | discoloration of the solution | 5.0 | – | –
2 | OC[C@@H](O)[C@H](O)[C@@H](O)CO [xylitol] | – | – | precipitated out of solution | –
3 | OCC(O)CO [glycerol] | – | – | precipitated out of solution | does not comply
4 | O=C1NS(=O)(=O)c2ccccc21.[Na] [sodium saccharin] | – | – | remained in solution | –
